Laboratory results as given in ChEMBL document CHEMBL5252648, “Design, synthesis and bioactivity evaluation of a series of quinazolinone derivatives as potent PI3Kγ antagonist” (Bioorg Med Chem, 2023).
Activity calls are given as the source filed them. No cut-off for these calls is given here.

Key:
[1] = target: T1, Phosphatidylinositol 4,5-bisphosphate 3-kinase catalytic subunit delta isoform (Homo sapiens) (UniProt O00329); assay: Antagonist activity at PI3Kdelta (unknown origin) assessed as inhibition rate at 20 nM using PIP2 as substrate in presence of ATP incubated for 30 to 60 mins by ADP-glo based luminescence assay relative to control; conditions: time 30-60 min
T1 sequence (whole entry): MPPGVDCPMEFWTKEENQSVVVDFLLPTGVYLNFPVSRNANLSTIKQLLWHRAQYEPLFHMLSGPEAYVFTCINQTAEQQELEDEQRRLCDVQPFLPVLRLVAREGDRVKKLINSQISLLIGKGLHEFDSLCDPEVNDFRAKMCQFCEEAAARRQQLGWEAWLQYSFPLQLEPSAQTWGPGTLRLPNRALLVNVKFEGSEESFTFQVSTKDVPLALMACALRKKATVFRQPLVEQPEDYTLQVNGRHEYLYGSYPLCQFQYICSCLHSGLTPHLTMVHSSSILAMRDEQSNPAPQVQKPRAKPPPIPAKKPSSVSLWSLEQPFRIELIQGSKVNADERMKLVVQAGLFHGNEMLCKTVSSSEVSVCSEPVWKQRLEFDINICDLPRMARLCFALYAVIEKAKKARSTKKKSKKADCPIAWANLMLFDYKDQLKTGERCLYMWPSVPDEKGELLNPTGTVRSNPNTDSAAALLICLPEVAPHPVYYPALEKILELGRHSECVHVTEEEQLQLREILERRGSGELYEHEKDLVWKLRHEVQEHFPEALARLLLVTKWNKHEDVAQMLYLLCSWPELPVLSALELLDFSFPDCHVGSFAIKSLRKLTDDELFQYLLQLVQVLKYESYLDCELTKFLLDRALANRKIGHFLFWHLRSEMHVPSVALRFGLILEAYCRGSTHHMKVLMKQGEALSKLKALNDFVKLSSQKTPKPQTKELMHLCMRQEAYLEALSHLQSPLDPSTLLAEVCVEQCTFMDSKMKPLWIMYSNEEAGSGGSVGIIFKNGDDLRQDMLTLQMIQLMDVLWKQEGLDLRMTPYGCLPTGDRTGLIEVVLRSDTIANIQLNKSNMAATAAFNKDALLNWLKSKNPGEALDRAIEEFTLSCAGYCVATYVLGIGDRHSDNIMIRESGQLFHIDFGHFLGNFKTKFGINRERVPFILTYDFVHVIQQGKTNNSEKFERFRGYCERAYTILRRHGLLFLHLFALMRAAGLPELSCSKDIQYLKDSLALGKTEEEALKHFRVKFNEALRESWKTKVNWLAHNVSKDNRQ

[2] = target: T2, Phosphatidylinositol 4,5-bisphosphate 3-kinase catalytic subunit delta isoform (Homo sapiens, UniProt O00329); assay: Antagonist activity at PI3Kdelta (unknown origin) using PIP2 as substrate in presence of ATP incubated for 30 to 60 mins by ADP-glo based luminescence assay
T2 sequence (O00329 whole entry): T1 sequence (whole entry)

[3] = target: Phosphatidylinositol 4,5-bisphosphate 3-kinase catalytic subunit gamma isoform (Homo sapiens, UniProt P48736); assay: Antagonist activity at PI3Kgamma (unknown origin) using PIP2 as substrate in presence of ATP incubated for 30 to 60 mins by ADP-glo based luminescence assay
[4] = target: Phosphatidylinositol 4,5-bisphosphate 3-kinase catalytic subunit beta isoform (Homo sapiens, UniProt P42338); assay: Antagonist activity at PI3Kbeta (unknown origin) using PIP2 as substrate in presence of ATP incubated for 30 to 60 mins by ADP-glo based luminescence assay
Jurkat [5] = assay: Cytotoxicity against human Jurkat cells assessed as reduction in cell viability incubated for 24 hrs by CCK-8 assay; assay type: functional, cell-based
THP-1 [6] = assay: Cytotoxicity against human THP-1 cells assessed as reduction in cell viability incubated for 24 hrs by CCK-8 assay; assay type: functional, cell-based; conditions: THP-1, 24 h
MDA-MB-231 = assay: Cytotoxicity against human MDA-MB-231 cells assessed as reduction in cell viability incubated for 24 hrs by CCK-8 assay; assay type: functional, cell-based; conditions: MDA-MB-231, 24 h
4T1 = assay: Cytotoxicity against mouse 4T1 cells assessed as reduction in cell viability incubated for 24 hrs by CCK-8 assay; assay type: functional, cell-based; conditions: 4T1, 24 h
HepG2 = assay: Cytotoxicity against human HepG2 cells assessed as reduction in cell viability incubated for 24 hrs by CCK-8 assay; assay type: functional, cell-based; conditions: HepG2, 24 h
B16-F10 = assay: Cytotoxicity against mouse B16-F10 cells assessed as reduction in cell viability incubated for 24 hrs by CCK-8 assay; assay type: functional, cell-based; conditions: B16-F10, 24 h
Huh-7 = assay: Cytotoxicity against human Huh-7 cells assessed as reduction in cell viability incubated for 24 hrs by CCK-8 assay; assay type: functional, cell-based; conditions: Huh-7, 24 h
Jurkat [7] = assay: Induction of apoptosis against human Jurkat cells assessed as early apoptotic cells at 0.1 uM measured for 24 hrs by Annexin V-FITC/propidium iodide staining based flow cytometry (reference value: 5.76%); assay type: functional
Jurkat [8] = assay: Induction of apoptosis against human Jurkat cells assessed as late apoptotic cells at 0.1 uM measured for 24 hrs by Annexin V-FITC/propidium iodide staining based flow cytometry (reference value: 0.00%); assay type: functional
Jurkat [9] = assay: Induction of apoptosis against human Jurkat cells assessed as viable cells at 10 uM measured for 24 hrs by Annexin V-FITC/propidium iodide staining based flow cytometry (reference value: 94.2 %); assay type: functional; conditions: read-out: Activity
Jurkat [10] = assay: Induction of apoptosis against human Jurkat cells assessed as necrotic cells at 10 uM measured for 24 hrs by Annexin V-FITC/propidium iodide staining based flow cytometry (reference value: 0.00%); assay type: functional
[11] = target: T3, Serine/threonine-protein kinase AKT (Homo sapiens) (UniProt P31751+Q9Y243+P31749); assay: Inhibition of AKT phosphorylation in human THP-1 cells incubated for 1 to 12 hrs by Western blot analysis relative to control; assay type: cell-based; conditions: dose 0.1-10 µM, time 1-12 hrs
[12] = target: T3, Serine/threonine-protein kinase AKT (Homo sapiens); assay: Inhibition of AKT phosphorylation in human Jurkat cells incubated for 1 to 12 hrs by Western blot analysis relative to control; assay type: cell-based; conditions: dose 0.1-10 µM, time 1-12 hrs
Jurkat [13] = assay: Upregulation of phosphorylated p38 protein expression in human Jurkat cells at 1 uM measured for 3 hrs; assay type: functional, cell-based
Jurkat [14] = assay: Upregulation of phosphorylated ERK1/2 protein expression in human Jurkat cells at 10 uM measured for 3 hrs; assay type: functional, cell-based
THP-1 [15] = assay: Induction of apoptosis against human THP-1 cells assessed as early apoptotic cells at 1 uM measured for 24 hrs by Annexin V-FITC/propidium iodide staining based flow cytometry (reference value: 10.3%); assay type: functional
THP-1 [16] = assay: Induction of apoptosis against human THP-1 cells assessed as late apoptotic cells at 1 uM measured for 24 hrs by Annexin V-FITC/propidium iodide staining based flow cytometry (reference value: 3.70%); assay type: functional
THP-1 [17] = assay: Induction of apoptosis against human THP-1 cells assessed as necrotic cells at 1 uM measured for 24 hrs by Annexin V-FITC/propidium iodide staining based flow cytometry (reference value: 0.316%); assay type: functional
THP-1 [18] = assay: Induction of apoptosis against human THP-1 cells assessed as early apoptotic cells at 10 uM measured for 24 hrs by Annexin V-FITC/propidium iodide staining based flow cytometry (reference value: 10.3%); assay type: functional
THP-1 [19] = assay: Induction of apoptosis against human THP-1 cells assessed as late apoptotic cells at 10 uM measured for 24 hrs by Annexin V-FITC/propidium iodide staining based flow cytometry (reference value: 3.70%); assay type: functional

T3 sequence (P31749 whole entry, looked up): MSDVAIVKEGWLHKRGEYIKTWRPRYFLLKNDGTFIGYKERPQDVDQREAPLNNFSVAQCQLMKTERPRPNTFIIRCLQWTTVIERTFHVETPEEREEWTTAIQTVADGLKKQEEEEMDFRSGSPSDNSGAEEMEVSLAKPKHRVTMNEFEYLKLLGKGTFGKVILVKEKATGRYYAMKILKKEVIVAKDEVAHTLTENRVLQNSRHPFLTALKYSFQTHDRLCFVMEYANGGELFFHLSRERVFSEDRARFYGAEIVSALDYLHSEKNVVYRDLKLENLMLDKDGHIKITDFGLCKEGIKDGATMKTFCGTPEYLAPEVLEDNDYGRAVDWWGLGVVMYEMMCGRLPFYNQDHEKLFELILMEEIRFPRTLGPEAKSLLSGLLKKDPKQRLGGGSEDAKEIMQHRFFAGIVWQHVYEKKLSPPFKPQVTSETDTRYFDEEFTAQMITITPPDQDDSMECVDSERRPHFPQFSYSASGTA
T3 sequence (P31751 whole entry, looked up): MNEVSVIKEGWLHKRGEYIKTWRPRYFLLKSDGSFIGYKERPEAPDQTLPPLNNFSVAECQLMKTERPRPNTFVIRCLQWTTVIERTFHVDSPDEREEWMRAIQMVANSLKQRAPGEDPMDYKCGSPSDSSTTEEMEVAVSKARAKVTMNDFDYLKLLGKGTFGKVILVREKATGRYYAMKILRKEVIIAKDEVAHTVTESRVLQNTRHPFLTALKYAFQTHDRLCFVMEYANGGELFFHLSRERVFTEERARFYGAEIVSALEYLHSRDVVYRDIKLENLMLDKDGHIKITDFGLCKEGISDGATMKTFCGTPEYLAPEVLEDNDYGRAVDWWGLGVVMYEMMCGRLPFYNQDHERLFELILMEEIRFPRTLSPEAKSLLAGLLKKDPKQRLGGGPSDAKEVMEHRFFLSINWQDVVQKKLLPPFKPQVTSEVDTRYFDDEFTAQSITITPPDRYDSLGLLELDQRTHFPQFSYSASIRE
T3 sequence (Q9Y243 whole entry, looked up): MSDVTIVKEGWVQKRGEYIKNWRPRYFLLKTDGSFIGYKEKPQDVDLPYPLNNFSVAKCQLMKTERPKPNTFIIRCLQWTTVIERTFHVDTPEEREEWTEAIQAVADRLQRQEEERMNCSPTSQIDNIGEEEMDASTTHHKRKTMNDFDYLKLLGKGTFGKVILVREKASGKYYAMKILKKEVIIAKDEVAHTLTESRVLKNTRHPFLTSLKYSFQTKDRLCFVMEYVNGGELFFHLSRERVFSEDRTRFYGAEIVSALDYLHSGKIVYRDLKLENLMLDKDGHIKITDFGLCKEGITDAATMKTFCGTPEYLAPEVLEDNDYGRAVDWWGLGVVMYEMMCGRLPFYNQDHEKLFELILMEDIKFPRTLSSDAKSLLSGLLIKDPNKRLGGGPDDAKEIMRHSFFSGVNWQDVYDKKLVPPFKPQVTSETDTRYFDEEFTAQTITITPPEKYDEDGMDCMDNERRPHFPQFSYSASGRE
Sequence of Phosphatidylinositol 4,5-bisphosphate 3-kinase catalytic subunit gamma isoform (P48736 whole entry, canonical isoform): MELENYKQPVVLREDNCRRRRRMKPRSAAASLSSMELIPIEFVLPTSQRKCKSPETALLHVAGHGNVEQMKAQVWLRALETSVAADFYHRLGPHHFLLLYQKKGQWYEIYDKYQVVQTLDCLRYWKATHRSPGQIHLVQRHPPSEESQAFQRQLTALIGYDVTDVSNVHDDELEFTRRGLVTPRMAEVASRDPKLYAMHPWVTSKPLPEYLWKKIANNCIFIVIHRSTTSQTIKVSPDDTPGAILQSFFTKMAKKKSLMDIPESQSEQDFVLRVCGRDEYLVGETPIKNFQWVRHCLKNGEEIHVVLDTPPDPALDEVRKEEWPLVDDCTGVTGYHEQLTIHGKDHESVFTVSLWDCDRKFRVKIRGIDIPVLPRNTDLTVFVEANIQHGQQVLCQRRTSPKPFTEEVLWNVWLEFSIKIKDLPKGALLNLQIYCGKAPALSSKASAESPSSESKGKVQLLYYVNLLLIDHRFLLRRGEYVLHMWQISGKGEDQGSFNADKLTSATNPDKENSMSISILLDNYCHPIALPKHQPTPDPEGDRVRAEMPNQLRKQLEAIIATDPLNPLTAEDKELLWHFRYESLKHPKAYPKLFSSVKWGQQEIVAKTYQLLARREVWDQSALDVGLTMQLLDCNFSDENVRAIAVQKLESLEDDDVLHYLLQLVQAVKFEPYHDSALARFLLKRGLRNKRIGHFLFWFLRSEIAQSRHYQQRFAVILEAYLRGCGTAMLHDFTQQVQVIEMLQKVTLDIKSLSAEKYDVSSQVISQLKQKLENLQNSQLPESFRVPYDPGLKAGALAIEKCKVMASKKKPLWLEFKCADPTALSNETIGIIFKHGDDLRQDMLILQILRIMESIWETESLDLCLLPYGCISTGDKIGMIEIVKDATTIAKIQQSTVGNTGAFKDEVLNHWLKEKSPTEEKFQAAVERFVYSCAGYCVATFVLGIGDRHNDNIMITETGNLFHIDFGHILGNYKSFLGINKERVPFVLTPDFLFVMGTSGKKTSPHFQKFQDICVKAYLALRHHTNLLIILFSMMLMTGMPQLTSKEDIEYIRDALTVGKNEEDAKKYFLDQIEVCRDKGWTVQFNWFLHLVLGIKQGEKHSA
Sequence of Phosphatidylinositol 4,5-bisphosphate 3-kinase catalytic subunit beta isoform (P42338 whole entry, canonical isoform): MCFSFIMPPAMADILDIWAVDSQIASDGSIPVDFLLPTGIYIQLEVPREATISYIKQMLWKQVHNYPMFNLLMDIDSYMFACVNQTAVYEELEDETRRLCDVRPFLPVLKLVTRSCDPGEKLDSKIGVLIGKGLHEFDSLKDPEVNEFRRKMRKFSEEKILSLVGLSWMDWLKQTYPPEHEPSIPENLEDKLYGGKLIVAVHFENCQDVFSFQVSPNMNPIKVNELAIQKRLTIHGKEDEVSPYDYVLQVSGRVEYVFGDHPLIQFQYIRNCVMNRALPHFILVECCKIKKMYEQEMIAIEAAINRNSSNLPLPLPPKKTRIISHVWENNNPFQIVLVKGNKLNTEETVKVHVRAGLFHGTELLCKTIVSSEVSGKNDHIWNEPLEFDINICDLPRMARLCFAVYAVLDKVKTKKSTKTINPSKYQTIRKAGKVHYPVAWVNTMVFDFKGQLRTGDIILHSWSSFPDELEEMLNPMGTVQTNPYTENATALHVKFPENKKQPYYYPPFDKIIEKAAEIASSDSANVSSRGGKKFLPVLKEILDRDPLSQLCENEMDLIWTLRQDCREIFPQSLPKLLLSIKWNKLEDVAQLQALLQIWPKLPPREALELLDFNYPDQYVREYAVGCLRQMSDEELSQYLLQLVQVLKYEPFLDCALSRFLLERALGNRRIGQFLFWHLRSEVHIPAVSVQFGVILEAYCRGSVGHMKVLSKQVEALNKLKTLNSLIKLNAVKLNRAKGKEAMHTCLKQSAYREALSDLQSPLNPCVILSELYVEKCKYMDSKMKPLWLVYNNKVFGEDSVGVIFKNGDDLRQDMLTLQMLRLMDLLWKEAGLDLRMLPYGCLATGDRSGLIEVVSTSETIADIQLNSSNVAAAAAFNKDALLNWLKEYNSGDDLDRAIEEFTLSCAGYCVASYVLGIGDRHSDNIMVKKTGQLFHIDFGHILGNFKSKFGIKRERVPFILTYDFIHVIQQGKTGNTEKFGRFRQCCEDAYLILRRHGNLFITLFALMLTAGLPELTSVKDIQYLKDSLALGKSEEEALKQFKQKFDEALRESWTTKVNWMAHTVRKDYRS

`COc1ccc(C#Cc2cccc3cc(C(C)Nc4ncnc5[nH]cnc45)n(-c4ccccc4)c(=O)c23)cc1` (centres undefined) showed an inhibition [1] of 16%, an IC50 [2] of 13.1 nM and an IC50 [3] of 208 nM. It also gave an IC50 [4] of 109 nM, an IC50 (Jurkat [5]) of 2410 nM and an IC50 (THP-1 [6]) of 7.47 µM. For the same molecule, the IC50 (MDA-MB-231) was 6.6 µM, the IC50 (4T1) was 9.76 µM and the IC50 (HepG2) was > 100 µM. The IC50 (B16-F10) was > 100 µM, the IC50 (Huh-7) was 5.05 µM and the Activity (Jurkat [7]) was 10.9%. It also gave an Activity (Jurkat [8]) of 0.025%, a viability at 10 µM (Jurkat [9]) of 30.2% and an Activity (Jurkat [10]) of 0.016%. The inhibition [11] was “Dose-Dependent Effect”, the inhibition [12] was “Dose-Dependent Effect” and the Activity (Jurkat [13]) was “Active”. For the same molecule, the Activity (Jurkat [14]) was “Active”, the Activity (THP-1 [15]) was 35.7% and the Activity (THP-1 [16]) was 4.63%. It also gave an Activity (THP-1 [17]) of 0.041%, an Activity (THP-1 [18]) of 24.6% and an Activity (THP-1 [19]) of 14.6%.
